Activity calls are given as the source filed them.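 How the source made its calls: active means compounds whose cell survival under thapsigargin stays above the level of untreated control cells; inactive means the rest, which was every compound here.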
Test system: PC12 rat cells, thapsigargin death, ATPlite luminescence, 24 h
Test: protection from thapsigargin-triggered PC12 cell death, SAR follow-up, undifferentiated PC12, rat pheochromocytoma, ATP luminescence (AID 1346)
Settings: at 25 µM, stronger effect = higher value
[1] = measured here: survival at 0.25 uM thapsigargin
[2] = measured here: survival at 1 uM thapsigargin

| SMILES | survival | survival [1] | survival [2] |
| --- | --- | --- | --- |
| CCOc1cccc(C2Nc3ccccc3NC3=C2C(=O)CC(c2ccc(OC)cc2)C3)c1 (stereo not drawn) | 30% (inactive) | 18% | 14% |
| COc1ccc(C2CC(=O)C3=C(C2)Nc2ccccc2NC3c2cccc(C(F)(F)F)c2)cc1OC (stereo not drawn) | 26% (inactive) | 25% | 23% |
| CCCOc1ccc(C2Nc3ccccc3NC3=C2C(=O)CC(c2ccc(OC)c(OC)c2)C3)cc1 (stereo not drawn) | 25% (inactive) | 28% | 26% |
| CCOc1cc(C2Nc3ccccc3NC3=C2C(=O)CC(c2ccc(OC)cc2)C3)cc(Cl)c1O (stereo not drawn) | 26% (inactive) | 38% | 35% |
| CC1(C)CC(=O)C2=C(C1)Nc1ccccc1NC2c1ccc(-c2ccccc2)cc1 (stereo not drawn) | 37% (inactive) | 33% | 29% |
| COc1ccc(C2CC(=O)C3=C(C2)Nc2ccccc2NC3c2ccccc2C(F)(F)F)cc1OC (stereo not drawn) | 30% (inactive) | 26% | 24% |
| COc1ccc(C2CC(=O)C3=C(C2)Nc2ccccc2NC3c2cc(C)ccc2C)cc1 (stereo not drawn) | 25% (inactive) | 27% | 26% |
| CSc1ccc(C2Nc3ccccc3NC3=C2C(=O)CC(c2ccccc2)C3)cc1 (stereo not drawn) | 31% (inactive) | 23% | 19% |
| COc1ccc(C2CC(=O)C3=C(C2)Nc2ccccc2NC3c2cccc(Oc3ccccc3)c2)cc1OC (stereo not drawn) | 49% (inactive) | 29% | 28% |
| O=C1CC(c2ccccc2)CC2=C1C(c1c(F)cccc1Cl)Nc1ccccc1N2 (stereo not drawn) | 22% (inactive) | 34% | 24% |
| COc1ccc(C2CC(=O)C3=C(C2)Nc2ccccc2NC3c2cccc(Br)c2)cc1OC (stereo not drawn) | 31% (inactive) | 25% | 21% |
